Results taken from ChEMBL document CHEMBL5500346, “Targeting EGFR degradation by autophagosome degraders” (Eur J Med Chem, 2024).
Activity calls are given as the source filed them.

Tests used:
HCC827 = assay: Antiproliferative activity against human HCC827 cells incubated for 72 hrs by CCK8 assay; format: functional, cell-based; details: HCC827, 72 h
NCI-H1975 = assay: Antiproliferative activity against human NCI-H1975 cells incubated for 72 hrs by CCK8 assay; format: functional, cell-based; details: NCI-H1975, 72 h
PC-9 [1] = assay: Antiproliferative activity against human PC-9 cells incubated for 72 hrs by CCK8 assay; format: functional, cell-based; details: PC-9, 72 h
A549 = assay: Antiproliferative activity against human A549 cells incubated for 72 hrs by CCK8 assay; format: functional, cell-based; details: A549, 72 h
L02 = assay: Antiproliferative activity against human HL7702 cells incubated for 72 hrs by CCK8 assay; format: toxicity, cell-based; details: l02, 72 h
[2] = molecular target: T1, Microtubule-associated protein 1 light chain 3 beta/Epidermal growth factor receptor (Homo sapiens, UniProt P00533+Q9GZQ8); assay: ATTEC activity at LC3B/EGFR in human HCC827 cells assessed as protein degradation at 0.33 uM by immunoblot analysis relative to control; format: cell-based
[3] = molecular target: T1, Microtubule-associated protein 1 light chain 3 beta/Epidermal growth factor receptor; assay: ATTEC activity at LC3B/EGFR in human HCC827 cells assessed as protein degradation by immunoblot analysis; format: cell-based
NCI-H3255 = assay: Antiproliferative activity against human NCI-H3255 cells incubated for 72 hrs by CCK8 assay; format: functional, cell-based; details: NCI-H3255, 72 h
PC-9 [4] = assay: Antiproliferative activity against Gefitinib-resistant human PC-9 cells incubated for 72 hrs by CCK8 assay; format: functional, cell-based
[5] = molecular target: T1, Microtubule-associated protein 1 light chain 3 beta/Epidermal growth factor receptor; assay: ATTEC activity at LC3B/EGFR in human HCC827 cells assessed as protein degradation at 3.3 uM by immunoblot analysis relative to control; format: cell-based
[6] = molecular target: T1, Microtubule-associated protein 1 light chain 3 beta/Epidermal growth factor receptor; assay: ATTEC activity at LC3B/EGFR in human HCC827 cells assessed as protein degradation at 0.11 uM by immunoblot analysis relative to control; format: cell-based
PC-9 [7] = assay: In vivo ATTEC activity at LC3B/EGFR in human PC-9 cells implanted in NOD-SCID mouse assessed as protein degradation at 20 mg/kg, ip measured after 24 hrs by Western blot analysis; format: functional, organism-based

| Structure (SMILES) | IC50 (HCC827) [µM] | IC50 (NCI-H1975) [µM] | IC50 (PC-9 [1]) [µM] | IC50 (A549) [µM] | Emax [2] [%] | DC50 [3] [µM] | IC50 (NCI-H3255) [µM] | Emax [5] [%] | Emax [6] [%] | Activity (L02) | Activity (PC-9 [4]) | Activity (PC-9 [7]) |
| --- | --- | --- | --- | --- | --- | --- | --- | --- | --- | --- | --- | --- |
| COc1cc2ncnc(Nc3ccc(F)c(Cl)c3)c2cc1OCCOCCOCCOCCNC(=O)COc1c(Br)cc(/C=C2\C(=O)Nc3ccc(Cl)cc32)cc1Br | > 10 | > 10 | 7.72 | > 10 | 9.1 | > 10 | 4.85 |  |  | Non-Toxic |  |  |
| COc1cc2ncnc(Nc3ccc(F)c(Cl)c3)c2cc1OCCOCCNC(=O)COc1c(Br)cc(/C=C2\C(=O)Nc3ccc(C)cc32)cc1Br | 1.72 | > 10 | 3.53 | > 10 |  | > 10 | 2.46 |  |  | Non-Toxic | Active |  |
| COc1cc2ncnc(Nc3ccc(F)c(Cl)c3)c2cc1OCCOCCOCCOCCNC(=O)COc1c(Br)cc(/C=C2\C(=O)Nc3ccccc32)cc1Br | 1.72 | > 10 | 1.09 | > 10 |  | > 10 | 1.43 | 26 |  | Non-Toxic | Active |  |
| COc1cc2ncnc(Nc3ccc(F)c(Cl)c3)c2cc1OCCOCCNC(=O)COc1c(Br)cc(/C=C2\C(=O)Nc3ccc(I)cc32)cc1Br | 1.28 | > 10 | 7.96 | > 10 | 20.2 | > 10 | 3.1 |  |  | Non-Toxic |  |  |
| COc1cc2ncnc(Nc3ccc(F)c(Cl)c3)c2cc1OCCCCCCCCNC(=O)COc1c(Br)cc(/C=C2\C(=O)Nc3ccc(I)cc32)cc1Br | 2.19 | > 10 | > 10 | > 10 |  | > 10 | 6.5 |  | 9.1 | Non-Toxic |  |  |
| COc1cc2ncnc(Nc3ccc(F)c(Cl)c3)c2cc1OCCOCCOCCNC(=O)COc1c(Br)cc(/C=C2\C(=O)Nc3ccc(Cl)cc32)cc1Br | 6.03 | > 10 | 3.81 | > 10 |  | 8.49 | 2 |  |  | Non-Toxic | Active |  |
| COc1cc2ncnc(Nc3ccc(F)c(Cl)c3)c2cc1OCCOCCOCCOCCOCCNC(=O)COc1c(Br)cc(/C=C2\C(=O)Nc3ccc(I)cc32)cc1Br | 1.15 | > 10 | 6.76 | > 10 |  | 5.81 | 4.14 |  |  | Non-Toxic |  |  |
| COc1cc2ncnc(Nc3ccc(F)c(Cl)c3)c2cc1OCCOCCNC(=O)COc1c(Br)cc(/C=C2\C(=O)Nc3ccc(Cl)cc32)cc1Br | 5.87 | > 10 | > 10 | > 10 |  | 0.94 | 4.58 |  |  | Non-Toxic | Active |  |
| COc1cc2ncnc(Nc3ccc(F)c(Cl)c3)c2cc1OCCOCCNC(=O)COc1c(Br)cc(/C=C2\C(=O)Nc3ccc(Br)cc32)cc1Br | > 10 | > 10 | > 10 | > 10 |  | > 10 | 5.18 |  |  | Non-Toxic | Active |  |
| COc1cc2ncnc(Nc3ccc(F)c(Cl)c3)c2cc1OCCOCCOCCNC(=O)COc1c(Br)cc(/C=C2\C(=O)Nc3ccc(I)cc32)cc1Br | 2.78 | > 10 | 11.1 | > 10 |  | 3.62 | 4.79 |  |  | Non-Toxic |  |  |
| COc1cc2ncnc(Nc3ccc(F)c(Cl)c3)c2cc1OCCOCCOCCOCCNC(=O)COc1c(Br)cc(/C=C2\C(=O)Nc3ccc(Br)cc32)cc1Br | 3.84 | > 10 | 5.12 | > 10 |  | 2.77 | 2.54 |  |  | Non-Toxic | Active |  |
| COc1cc2ncnc(Nc3ccc(F)c(Cl)c3)c2cc1OCCCCCCNC(=O)COc1c(Br)cc(/C=C2\C(=O)Nc3ccc(I)cc32)cc1Br | > 10 | > 10 | > 10 | > 10 |  | > 10 | > 10 |  |  | Non-Toxic |  |  |
| COc1cc2ncnc(Nc3ccc(F)c(Cl)c3)c2cc1OCCCN1CCOCC1 |  |  |  |  |  |  |  |  |  |  |  | inactive |

Second part, led by results:

| IC50 (HCC827) [µM] | IC50 (NCI-H1975) [µM] | IC50 (PC-9 [1]) [µM] | IC50 (A549) [µM] | Emax [2] [%] | DC50 [3] [µM] | IC50 (NCI-H3255) [µM] | Emax [5] [%] | Emax [6] [%] | Structure (SMILES) | Activity (L02) | Activity (PC-9 [4]) | Activity (PC-9 [7]) |
| --- | --- | --- | --- | --- | --- | --- | --- | --- | --- | --- | --- | --- |
| 0.976 | > 10 | > 10 | > 10 |  | > 10 | 4.93 |  |  | COc1cc2ncnc(Nc3ccc(F)c(Cl)c3)c2cc1OCCCCCCCCCCNC(=O)COc1c(Br)cc(/C=C2\C(=O)Nc3ccc(I)cc32)cc1Br | Non-Toxic |  |  |
| 0.862 | > 10 | 1.36 | > 10 |  | > 10 | 1.83 |  |  | COc1cc2ncnc(Nc3ccc(F)c(Cl)c3)c2cc1OCCOCCOCCNC(=O)COc1c(Br)cc(/C=C2\C(=O)Nc3ccc(C)cc32)cc1Br | Non-Toxic | Active |  |
| 1.06 | > 10 | 3.12 | > 10 |  | > 10 | 2.84 |  |  | COc1cc2ncnc(Nc3ccc(F)c(Cl)c3)c2cc1OCCOCCOCCNC(=O)COc1c(Br)cc(/C=C2\C(=O)Nc3ccc(Br)cc32)cc1Br | Non-Toxic | Active |  |
| 0.937 | > 10 | 3.78 | > 10 |  | > 10 | 1.13 |  |  | COc1cc2ncnc(Nc3ccc(F)c(Cl)c3)c2cc1OCCOCCOCCOCCNC(=O)COc1c(Br)cc(/C=C2\C(=O)Nc3ccc(C)cc32)cc1Br | Non-Toxic | Active |  |
| 0.923 | > 10 | 7.04 | > 10 |  | 6.42 | 3.41 |  |  | COc1cc2ncnc(Nc3ccc(F)c(Cl)c3)c2cc1OCCOCCOCCOCCNC(=O)C(C)Oc1c(Br)cc(/C=C2\C(=O)Nc3ccc(I)cc32)cc1Br (stereo not given) | Non-Toxic | Active |  |
| 1.15 | 3.18 | 1.43 | > 10 |  | > 10 | 0.908 |  |  | COc1cc2ncnc(Nc3ccc(F)c(Cl)c3)c2cc1OCCOCCOCCNC(=O)COc1c(Br)cc(/C=C2\C(=O)Nc3ccccc32)cc1Br | Non-Toxic | Active |  |
| 0.21 | > 10 | > 10 | > 10 |  | > 10 | 6.04 | 5.8 |  | COc1cc2ncnc(Nc3ccc(F)c(Cl)c3)c2cc1OCCCCNC(=O)COc1c(Br)cc(/C=C2\C(=O)Nc3ccc(I)cc32)cc1Br | Non-Toxic |  |  |
